For experiment [1], the system named is Plasmodium falciparum. Put plainly: Antiplasmodial activity against Plasmodium falciparum D6. The class given is functional, organism-based.
The subject of experiment [2] is Candida albicans. The experiment in a line: Antifungal activity against Candida albicans. The class given is functional, organism-based.
The subject of experiment [3] is SK-OV-3. Put plainly: Cytotoxicity against human SKOV3 cells. The class given is functional, cell-based.
In experiment [4] the test system is KB. The experiment in a line: Cytotoxicity against human KB cells. The class given is functional, cell-based.
Experiment [5] has as its system SK-MEL. Put plainly: Cytotoxicity against human SK-MEL cells. The class given is functional, cell-based.
For experiment [6], the system named is Cryptococcus neoformans. The experiment in a line: Antifungal activity against Cryptococcus neoformans. The class given is functional, organism-based.
For experiment [7], the system named is Plasmodium falciparum. The experiment in a line: Antiplasmodial activity against chloroquine-resistant Plasmodium falciparum W2. The class given is functional, organism-based.

We go through 6 compounds from ChEMBL document CHEMBL1155755, “Microbial transformation of pyrethrosin” (J Nat Prod, 2001).

Usually IC50 stands for the concentration at which inhibition is half-maximal. The low end stands for greater potency, the high end for weaker potency.

SMILES strings stand for the structures. ≈ marks a conversion by molar mass, not a printed value.

As to `CC(=O)O[C@H]1[C@H]2[C@H](C[C@@]3(C)[C@H](O)CC[C@@](C)(O)[C@H]13)OC(=O)[C@@H]2C`, the IC50 worked out at 0.88 µg/mL (≈ 2.7 µM) in experiment [1] and 10 µg/mL (≈ 30.6 µM) in experiment [2].

Consider `C=C1CC[C@@H](O)[C@]2(C)C[C@@H]3OC(=O)[C@H](C)[C@H]3[C@H](OC(C)=O)[C@@H]12`, for which the IC50 in experiment [3] was found to be 8 µg/mL (≈ 25.9 µM); in experiment [4], 1.1 µg/mL (≈ 3.57 µM).

`C=C1C(=O)O[C@H]2C[C@@]3(C)O[C@@H]3CC/C(C)=C/[C@@H](OC(C)=O)[C@H]12` [PYRETHROSIN]: the IC50 worked out at 4.2 µg/mL (≈ 13.7 µM) in experiment [5] and 30 µg/mL (≈ 97.9 µM) in experiment [2].

As for `CC(=O)O[C@H]1[C@H]2[C@H](C[C@]3(C)[C@@H]1[C@](C)(O)CC[C@H]3OC(C)=O)OC(=O)[C@@H]2C`, the concentration for half-maximal inhibition (IC50) in experiment [1] is 0.32 µg/mL (≈ 0.869 µM); in experiment [6], 25 µg/mL (≈ 67.9 µM); in experiment [7] it was 0.38 µg/mL (≈ 1.03 µM).

Regarding `CC1=CC[C@@H](O)[C@]2(C)C[C@@H]3OC(=O)[C@H](C)[C@H]3[C@H](O)[C@@H]12`, half-maximal inhibition in experiment [5] (IC50) was put at 7.5 µg/mL (≈ 28.2 µM).

For the compound `C=C1CC[C@@H](O)[C@]2(C)C[C@@H]3OC(=O)[C@H](C)[C@H]3[C@H](O)[C@@H]12`, the IC50 in experiment [6] was found to be 35 µg/mL (≈ 131 µM).
